Results reported in patent publication US9408854B2, “Methods and systems for pharmacogenomic treatment of cardiovascular conditions” (ROSTAQUO S.P.A., priority 2009, dated 2016).

Test system: hypertensive patients
Assay: Two separate studies: blood pressure change with HCTZ, Losartan and rostafuroxin in patients carrying profile 4, 8 or 9
Format: in vivo, human
Details: preliminary data; for modification in blood pressure: individuals carrying profile 4
From the text: In particular, individuals carrying profile 4 show a modification in blood pressure of: −12.3±1.5 mmHg with HCTZ; −11.3±1.7 with Losartan and −18.74±1.8 mmHg with rostafuroxin; individuals with profile 8 show the a decrease in blood pressure of −11.3±1.2 with HCTZ; −11.6±1.3 with Losartan and −15.2±1.5 mmHg with rostafuroxin; individuals with profile 9 show the a decrease in blood pressure of −11.9±1.2 with HCTZ; −11.4±1.4 with Losartan and −15.2±1.5 mmHg with rostafuroxin.

Row | Compound | modification in blood pressure [mmHg] | decrease in blood pressure (individuals with profile 8) [mmHg] | decrease in blood pressure (individuals with profile 9) [mmHg]
1 | CCCCc1nc(Cl)c(CO)n1Cc1ccc(-c2ccccc2-c2nnn[nH]2)cc1 [Losartan, (2-butyl-4-chloro-1-{[2′-(1H-tetrazol-5-yl)biphenyl-4-yl]methyl}-1H-imidazol-5-yl)methanol] | −11.3±1.7 | −11.6±1.3 | −11.4±1.4
2 | NS(=O)(=O)c1cc2c(cc1Cl)NCNS2(=O)=O [HCTZ, 6-chloro-1,1-dioxo-3,4-dihydro-2H-1,2,4-benzothiadiazine-7-sulfonamide] | −12.3±1.5 | −11.3±1.2 | −11.9±1.2
